We go through three compounds from US20190284192A1, “NITROGENOUS MACROCYCLIC COMPOUND, PREPARATION METHOD THEREFOR, PHARMACEUTICAL COMPOSITION AND APPLICATION THEREOF” (LUOXIN PHARMACEUTICAL (SHANGHAI) CO., LTD., priority 2016, published 2019).

The structures appear in SMILES notation. Read-outs that look alike come from different tables or passages of the source.

What is called AUC(0-inf) is total exposure, with the tail of the curve extrapolated. As a reminder, the AUC(0-t) is exposure summed from dosing to a finite time, without extrapolation to infinity. The MRT inf is a mean duration of stay, worked out from the concentration-time curve. By Tmax is commonly meant the time at which the peak concentration occurs.

Series [1] in a line: Cassette pharmacokinetic study, intravenous or oral administration. The format is in vivo, female Balb/c nude mice. The arrangement: Cmax: unit not given here. Particulars: for F: PO 2 mg/kg vs IV 0.5 mg/kg; for AUC(0-inf) / AUC(0-t) / MRT inf / clearance / half-life / Vd / Tmax: female, Balb/c nude, mouse, whole blood; for AUC(0-inf) / AUC(0-t) / MRT inf / clearance / half-life / Vd / Tmax / Cmax: N = 3, cassette; for half-life: read-out: Terminal t1/2 (converted); for Vd: read-out: Vss. The protocol:
Determinations of the pharmacokinetic parameters of ABBV-075 (standard control), 4009, 4018, 4026 and 4031 in femal Balb/c nude mice after intravenous or oral administration.
Detailed Experimental Steps:
6 female Balb/c nude mice weighing 18-20 g were divided into two groups (3/group), after fixation, the intravenous group: 0.5 mg/kg (5 mL/kg) injected by caudal vein (N=3); the oral group: 2 mg/kg (10 mL/kg) by intragastic administration (N=3). Approximately 20 μL of blood was drawn behind the eyeball at the sampling point and placed in EDTA-2K tube. The sample was immediately diluted with 40 μL of double distilled water and vortexed until well mixed. Blood samples were stored at approximately −70° C. and submitted to the BA group for analysis (LC/MS). 30 μL of blood sample was added with 200 μL of H2O and 30 μL of IS dexamethasone, 200 ng/mL), layered by LLE, and 1 mL of MTBW was added as an organic extraction solvent. The mixture was vortexed for 10 min and centrifuged at 10,000 rpm for 5 min. 850 μL of the supernatant was evaporated under nitrogen until desiccated. The desiccated extract was re-mixed with 150 μL of 50% methanol, vortexed for 2 min, and then analyzed by injecting 5 μL of the supernatant into LC-MS/MS.
2. Intravenous/oral administration formula: 5% DMSO, 95% (10% HP-3-CD in water)
3. PK calculation parameter used non-compartment model, WinNonlin 6.4 software calculation

The next series concerns MV-4-11 cells. The experiment in a line: Inhibitory effect on MV-4-11 cells (CellTiter-Glo). The format is cell-based. Particulars: Homo sapiens, MV4-11; 72 hours, CellTiter-Glo; read-out: MV-4-11. A general note: Cellular ATP, detected with luciferase, serves as a proxy for viable cell number.
In another series the test system is SU-DHL-6 cells. Briefly: Inhibitory effect on SU-DHL-6 cells (CellTiter-Glo). The format is cell-based. The conditions noted are these: Homo sapiens; 72 hours, CellTiter-Glo; read-out: SU-DHL-6. The protocol:
Determinations of the inhibition of the compounds from the above embodiments against SU-DHL-6 cells, the detailed operation steps are as followed:
The 1st Day: Seed the Cells on the Plate
1. The cells were verified that they were in good conditions by observation under microscope;
2. The cells were transferred to a centrifuge tubes, after centrifuged at 1000 rpm for 5 min, the supernatant was discarded;
3. The complete substrate (1640+10% FBS) was added, then blown and patted into single cell suspension, counted by Vi-cell cytometer, the cell suspension was adjusted to desired cell density by the complete medium.
4. The cells were inoculated into a 96 well plate, the cell number was 12000/well at 100 μL per well, 100 μL complete medium was added into the black control;
5. 37° C., 5% CO2 culture overnight.
The 2nd Day: Addition of the Drugs
1. 1000× Compound Plate Preparation
1.1. The test compound was prepared into 10 mM working solution by using DMSO. Then the STS was prepared into 2 mM working solution by using DMSO.
1.2. In the round bottom 96 wells plate, the column 2 of row A to H was added into 60 μL 10 mM test compound (or STS) working solution, columns 3-11 were added into 40 μL DMSO, 20 μL drug solution was pipetted from the column 2 to the column 3, blown and patted for a homogeneous mixture; then 20 μL solution was pipetted from the column 3 to the column 4, blown and patted for a homogeneous mixture, sequently, the drug was diluted by 3 times, 10 concentrations in total. The columns 1 and 12 were supplemented with 40 μL of DMSO.
2. Intermediate plate preparation
A sterile V-bottom 96 deep well plate was used and in each well, 495 μL FBS-free PRMI 1640 medium was added, then 5 μL of the diluted compound (or DMSO) in the 1000× compound plate was pipetted into corresponding position of the V-bottom 96 well plate, blown and patted evenly.
3.1. The cell plate was taken out from the incubator and was observed under microscope. The diluted compound or DMSO in the intermediate plate was added into the cell plate, 11 μL each well.
3.2. The cell was continued to be cultured at 37° C., 5% CO2 for 72 hours.
The 5th Day: CellTiter-Glo Detection of the Cell Activity
1. The CellTiter-Glo buffer and the reaction substrate were taken out from the refrigerator, after balanced to r.t., the buffer was poured into a brown bottle containing the substrate, the bottle was upside down to have the substrate powder sufficientaly dissolved.
2. The cell was observed under microscope; the cell plate was balanced to r.t.
3. The prepared CellTiter-Glo was added into the 96 well plate, at 100 μL/well.
4. The cell plate was placed on a shaker for 10 min, followed by standing at r.t. for 10 min.
5. A white seal film was attached to the bottom of the well plate, and the chemiluminescence signal of each well was detected by the Enspire microplate detector.
6. XLfit was used for data processing. Inhibition rate %=(d-c)/(d-b)×100, while d is the signal value of the DMSO treated group, c is the signal value of the compound treated group, b is signal value of the blank control that only containing medium and DMSO without cells. The data was fitted using the f (x)205[fit=(A+((B−A)/(1+((C/x)^∧D))))] equation in the XLfit software.

`CCS(=O)(=O)Nc1ccc(Oc2ccc(F)cc2F)c(-c2cn(C)c(=O)c3[nH]ccc23)c1` [ABBV-075] came in with a F in series [1] of 62.5%. In series [1] (IV 0.5 mg/kg), this compound showed an AUC(0-inf) of 510 ng·h/mL, an AUC(0-t) of 457 ng·h/mL, an MRT inf of 3.1 h and a clearance of 16.4 mL/min/kg. Moreover, in series [1] (IV 0.5 mg/kg), the half-life is 2.8 h and the Vd is 3.06 L/kg. Further, in series [1] (PO 2 mg/kg), the area under the curve AUC(0-inf) turned out to be 1680 ng·h/mL, the exposure AUC(0-t) stood at 1140 ng·h/mL, the time to peak (Tmax) was 1 h and the half-life is 4.56 h. The IC50 in the series with MV-4-11 cells worked out at 7 nM. Besides, in the series with SU-DHL-6 cells, the IC50 turned out to be 21 nM.

On to `CCS(=O)(=O)Cc1ccc2c(c1)-c1cn(C)c(=O)cc1CN=C2c1ccc(F)cc1` [Compound 4009, 7-(4-fluorophenyl)-2-methyl-10-(ethylsulfonemethyl)-2H-benzo[c]pyrido[3,4-e]azepin-3(5H)-ketone], for which, in series [1], the F is on record as 99.7%. In series [1] (PO 2 mg/kg), the Cmax was determined as 742, the AUC(0-inf) is 2350 ng·h/mL, the exposure AUC(0-t) was found to be 2250 ng·h/mL and the time of peak concentration (Tmax) came to 0.667 h. For the same compound, the half-life in series [1] (PO 2 mg/kg) is 4.21 h. For the same compound, in series [1] (IV 0.5 mg/kg), the total exposure AUC(0-inf) was determined as 590 ng·h/mL, the AUC(0-t) was 575 ng·h/mL, the mean residence time (MRT inf) amounted to 1.61 h and the clearance is 14.2 mL/min/kg. In series [1] (IV 0.5 mg/kg), the half-life was 1.69 h and the Vd stood at 1.38 L/kg. For the same compound, the IC50 in the series with MV-4-11 cells amounted to 53 nM. Moreover, the IC50 in the series with SU-DHL-6 cells stood at 83 nM.

In turn, `CCS(=O)(=O)Cc1ccc2c(c1)-c1cn(C)c(=O)cc1[C@H](C)N=C2c1ccc(F)cc1` [Compound 4026, (S)-10-((ethylsulfone)methyl)-7-(4-fluorophenyl)-2,5-dimethyl-2,5-dihydro-3H-benzo[c]pyrido[3,4-e]azepin-3-ketone] gave a F in series [1] of 89.5%. Also, in series [1] (PO 2 mg/kg), the Cmax is reported as 1082, the AUC(0-inf) was found to be 4050 ng·h/mL, the AUC(0-t) turned out to be 3740 ng·h/mL and the Tmax came to 0.5 h. For the same compound, the half-life in series [1] (PO 2 mg/kg) is 4.35 h. Moreover, in series [1] (IV 0.5 mg/kg), the area under the curve AUC(0-inf) came to 1140 ng·h/mL, the AUC(0-t) came out at 1100 ng·h/mL, the mean residence time (MRT inf) was found to be 3.21 h and the clearance was 7.5 mL/min/kg. In series [1] (IV 0.5 mg/kg), the half-life was 2.85 h and the Vd came to 1.43 L/kg. For the same compound, the IC50 with MV-4-11 cells came out at 4 nM. For the same compound, the IC50 in the series on SU-DHL-6 cells worked out at 10 nM.
